Assay results from patent US5922715A, “5-aminoalkoxy-1, 4-dihydroquinoxaline-2, 3-diones” (American Home Products Corporation, priority 1998, dated 1999).

Key:
[1] = biological target: T1, dopamine D2 (dopamine autoreceptor) (Rattus norvegicus, UniProt P61169); experiment: Affinity for the dopamine autoreceptor: 3H-quinpirole (Quin.) binding, homogenized rat striatal brain tissue
T1 construct: homogenized rat striatal brain tissue; from tissue; host or cells: rat striatal brain tissue, homogenized
Protocol: Affinity for the dopamine autoreceptor was established by a modification of the standard experimental test procedure of Seamen and Schaus, European Journal of Pharmacology 203, 105-109, 1991, wherein homogenized rat striatal brain tissue is incubated with ^3 H-quinpirole (Quin.) and various concentrations of test compound, filtered and washed and counted in a Betaplate scintillation counter.

[2] = biological target: T2, dopamine D-2 receptor (Rattus norvegicus, UniProt P61169); experiment: High affinity for the dopamine D-2 receptor: 3H-spiroperidol (Spiper.) binding, homogenized limbic brain tissue; conditions: read-out: IC50 (nM) D2 Spiper
T2 construct: homogenized limbic brain tissue; from tissue; host or cells: limbic brain tissue, homogenized
Protocol: High affinity for the dopamine D-2 receptor was established by the standard experimental test procedure of Fields, et al., Brain Res., 136, 578 (1977) and Yamamura et al., eds., Neurotranrutter Receptor Binding, Raven Press, N.Y. (1978) wherein homogenized limbic brain tissue is incubated with ^3 H-spiroperidol (Spiper.) and various concentrations of test compound, filtered and washed and shaken with Hydrofluor scintillation cocktail (National Diagnostics) and counted in a Packard 460 CD scintillation counter.

T1 sequence (P61169 whole entry): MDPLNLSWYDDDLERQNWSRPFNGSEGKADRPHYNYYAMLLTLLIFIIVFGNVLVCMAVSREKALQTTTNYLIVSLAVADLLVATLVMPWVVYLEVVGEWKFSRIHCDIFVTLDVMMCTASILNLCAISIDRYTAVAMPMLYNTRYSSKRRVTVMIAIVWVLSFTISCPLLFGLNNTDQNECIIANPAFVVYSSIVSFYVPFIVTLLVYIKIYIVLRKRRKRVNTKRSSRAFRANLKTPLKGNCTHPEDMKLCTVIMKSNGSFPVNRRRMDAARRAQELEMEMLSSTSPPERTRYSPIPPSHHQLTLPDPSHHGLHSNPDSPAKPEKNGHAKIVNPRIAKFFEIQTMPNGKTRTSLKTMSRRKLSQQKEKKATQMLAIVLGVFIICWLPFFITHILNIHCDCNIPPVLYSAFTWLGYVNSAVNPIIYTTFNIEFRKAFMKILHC
T2 sequence (P61169 whole entry): as above

IC50 [1] [nM] | IC50 [2] [nM] | SMILES
20.8 | 2190 | O=c1[nH]c2cccc(OCCNCc3ccccc3)c2[nH]c1=O [Example 1, 5-(2-Benzylamino-ethoxy)-1,4-dihydro-quinoxaline-2,3-dione]
64.6 | – | O=c1[nH]c2cccc(OCCNCc3ccc(Cl)cc3)c2[nH]c1=O [Example 2, 5-[2-(4-Chloro-benzylamino)-ethoxy]-1,4-dihydro-quinoxaline-2,3-dione]
